Here are results for 7 molecules from patent EP0417987B1, “Fabric softening” (UNILEVER PLC, priority 1989, dated 1991).

Where a name gives a salt, the structure may show the parent alone.

Data set [1] in a line: pH of the rinse water after adding rinse conditioner to the last rinse cycle of a machine wash. It counts as physicochemical. Particulars: 90 mls rinse conditioner (about 200 ppm amine) in last rinse cycle.
Protocol: (§1) The performance and stability of several amine containing liquid fabric softening compositions was tested as follows:
(§2) A wash load of 1.25 kg of terry towelling and 1.25 kg of cotton sheeting fabrics was washed at 40°C in a Miele 756 automatic with 100g of Persil Automatic (UK).
A short description of data set [2]: pH of the undiluted liquid rinse conditioner. Conditions: rinse conditioner 5wt% Armeen M2HT, 1wt% tallow 35EO.
Protocol: as §1, §2
A short description of data set [3]: Stability of the undiluted liquid rinse conditioner. Conditions: rinse conditioner 5wt% Armeen M2HT, 1wt% tallow 35EO.
Protocol: as §1, §2
[4] abbreviates: pH adjuster conc 0.3 M in product.
The mark [5] stands for this setting: pH adjuster conc 0.5 M in product.
Setting [6] is: pH adjuster conc 0.9 M in product.
The mark [7] stands for this setting: pH adjuster conc 0.7 M in product.
Setting [8] is: pH adjuster conc 1.0 M in product.
The mark [9] stands for this setting: pH adjuster conc 0.4 M in product.
Where [10] appears, read: pH adjuster conc 0.6 M in product.

In the case of `O=C(O)CC(O)(CC(=O)O)C(=O)O` [Citric, citric acid], the “rinse pH” value in data set [1] (setting [4]) is recorded as 5.6; in data set [1] (setting [5]), 4.5; in data set [1] (setting [6]), 3.8.

Turning to `Cl` [HCl], the “undiluted product pH” value is 0.2 in data set [2] (pH adjuster conc 0.7 M) and 0.1 in data set [2] (pH adjuster conc 1.0 M). The figures for the “rinse pH” value in data set [1] (setting [7]), in data set [1] (setting [6]) and in data set [1] (setting [8]) were 5.2, 4.4 and 3.7, respectively.

For `O=C(O)CC(=O)O` [Malonic, malonic acid], in data set [3] (pH adjuster conc 0.7 M), the undiluted product stability entry is “stable”. For the same molecule, the “undiluted product pH” value in data set [2] (pH adjuster conc 0.7 M) stood at 1.5. The “rinse pH” value in data set [1] (setting [5]) came to 5.4; in data set [1] (setting [7]), 4.7; in data set [1] (setting [6]), 3.4.

For `O=C(O)C(=O)O` [Oxalic, Oxalic acid], the undiluted product stability result in data set [3] (pH adjuster conc 0.6 M) is reported as “unstable”. Further, the “undiluted product pH” value in data set [2] (pH adjuster conc 0.6 M) worked out at 0.8. For the same molecule, the entries for the “rinse pH” value in data set [1] (setting [4]), in data set [1] (setting [9]) and in data set [1] (setting [10]) were 6.0, 4.8 and 3.3, respectively.

`O=C(O)CCC(=O)O` [Succinic, succinic acid]: the undiluted product stability entry in data set [3] (pH adjuster conc 1.0 M) and in data set [3] (pH adjuster conc 1.5 M) was “stable” each time. For the same molecule, the “undiluted product pH” value in data set [2] (pH adjuster conc 1.0 M) worked out at 2.3; in data set [2] (pH adjuster conc 1.5 M) it was 2.2. Besides, the entries for the “rinse pH” value in data set [1] (setting [8]) and in data set [1] (pH adjuster conc 1.5 M in product) were 4.5 and 4.2, respectively.

As for `O=C(O)C(O)C(O)C(=O)O` (centres unmarked) [Tartaric, tartaric acid], the “rinse pH” value in data set [1] (setting [9]) amounted to 5.7; in data set [1] (setting [5]), 4.5; in data set [1] (pH adjuster conc 0.8 M in product), 3.9.

In the case of `O=P(O)(O)O` [o-H₃PO₄, orthophosphoric acid], the “undiluted product pH” value in data set [2] (pH adjuster conc 0.6 M) was 1.3; in data set [2] (pH adjuster conc 1.2 M) it was 0.8. For the same molecule, the “rinse pH” value in data set [1] (setting [10]) turned out to be 5.6; in data set [1] (setting [6]), 4.6; in data set [1] (pH adjuster conc 1.2 M in product), 3.8.
